Test results reported in the supplement of paper PMC10307832.

Columns and labels:
Experiment in all cases: relative viability (nuclei count vs DMSO), 5 days (fraction); higher = more cells survive
CX-5461 + Luminespib = compound: Cc1cnc(CNC(=O)c2c(=O)c3ccc(N4CCCN(C)CC4)nc3n3c2sc2ccccc23)cn1 [CX-5461] + CCNC(=O)c1noc(-c2cc(C(C)C)c(O)cc2O)c1-c1ccc(CN2CCOCC2)cc1 [Luminespib] (partner 0.01 µM)
Method in brief: (§1)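 Medians of duplicate plates are given as relative viability. That measure is the nuclei count in treated wells divided by the count in vehicle wells. Counts were taken on 4× images of lung cancer cell lines in 1536-well plates, 5 days after pin-tool dosing the day after seeding with one drug alone or a fixed anchor-drug dose plus five library-drug doses (not always all listed) in √10 steps.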

CX-5461 + Pictilisib = compound: Cc1cnc(CNC(=O)c2c(=O)c3ccc(N4CCCN(C)CC4)nc3n3c2sc2ccccc23)cn1 [CX-5461] + CS(=O)(=O)N1CCN(Cc2cc3nc(-c4cccc5[nH]ncc45)nc(N4CCOCC4)c3s2)CC1 [Pictilisib] (partner 1 µM)
Method in brief: as §1

IMD-0354 + OSI-027 = compound: O=C(Nc1cc(C(F)(F)F)cc(C(F)(F)F)c1)c1cc(Cl)ccc1O [IMD-0354] + COc1cccc2cc(-c3nc([C@H]4CC[C@H](C(=O)O)CC4)n4ncnc(N)c34)[nH]c12 [OSI-027] (partner 0.5 µM)
Method in brief: as §1

IMD-0354 + AZD7762 = compound: O=C(Nc1cc(C(F)(F)F)cc(C(F)(F)F)c1)c1cc(Cl)ccc1O [IMD-0354] + NC(=O)Nc1cc(-c2cccc(F)c2)sc1C(=O)N[C@H]1CCCNC1 [AZD7762] (partner 0.2 µM)
Method in brief: as §1

Cell Line	relative viability (CX-5461 + Luminespib; first compound 0.01 µM)	relative viability (CX-5461 + Luminespib; first compound 0.03162 µM)	relative viability (CX-5461 + Luminespib; first compound 0.1 µM)	relative viability (CX-5461 + Luminespib; first compound 0.3162 µM)	relative viability (CX-5461 + Luminespib; first compound 1 µM)	relative viability (CX-5461 + Pictilisib; first compound 0.01 µM)	relative viability (CX-5461 + Pictilisib; first compound 0.03162 µM)	relative viability (CX-5461 + Pictilisib; first compound 0.1 µM)	relative viability (CX-5461 + Pictilisib; first compound 0.3162 µM)	relative viability (CX-5461 + Pictilisib; first compound 1 µM)	relative viability (IMD-0354 + OSI-027; first compound 0.04 µM)	relative viability (IMD-0354 + OSI-027; first compound 0.1265 µM)	relative viability (IMD-0354 + OSI-027; first compound 0.4 µM)	relative viability (IMD-0354 + OSI-027; first compound 1.265 µM)	relative viability (IMD-0354 + OSI-027; first compound 4 µM)	relative viability (IMD-0354 + AZD7762; first compound 0.04 µM)	relative viability (IMD-0354 + AZD7762; first compound 0.1265 µM)	relative viability (IMD-0354 + AZD7762; first compound 0.4 µM)	relative viability (IMD-0354 + AZD7762; first compound 1.265 µM)	relative viability (IMD-0354 + AZD7762; first compound 4 µM)
NCI-H1975	0.353	0.249	0.43	0.191	0.202	0.293	0.274	0.274	0.315	0.209	0.917	0.6	0.402	0.205	0.155	0.781	0.771	0.655	0.724	0.266
NCI-H1993	0.869	0.935	0.861	0.724	0.907	0.778	0.83	0.891	0.84	0.819	0.576	0.504	0.562	0.522	0.482	0.853	0.645	0.711	0.328	0.529
NCI-H2085	0.488	0.404	0.32	0.567	0.405	0.551	0.408	0.435	0.514	0.374	0.773	0.78	0.522	0.362	0.212	1.18	1.12	0.754	0.324	0.359
NCI-H2087	0.184	0.166	0.15	0.158	0.178	0.887	1.02	1.07	0.282	0.716	0.496	0.646	0.189	0.119	0.112	1.6	1.07	0.637	0.235	0.392
NCI-H2126	0.883	0.848	0.908	0.847	0.411	0.486	0.521	0.478	0.518	0.487	0.752	0.609	0.594	0.588	0.524	1.24	1.05	0.697	0.566	0.346
NCI-H2170	0.636	0.54	1.02	0.771	0.554	0.368	0.366	0.344	0.232	0.379	0.764	0.673	0.475	0.547	0.231	0.946	0.978	0.818	0.767	0.151
NCI-H2347	0.563	0.413	0.753	0.327	0.341	0.769	0.697	0.49	0.562	0.665	0.37	0.331	0.42	0.294	0.335	0.829	0.838	0.617	0.281	0.345
NCI-H2405	0.664	0.665	0.862	0.743	0.515	0.427	0.468	0.419	0.259	0.413	0.696	0.601	0.552	0.312	0.307	0.964	0.829	0.514	0.29	0.414
NCI-H3122	0.0935	0.0696	0.096	0.0801	0.0781	0.558	0.657	0.617	0.533	0.608	1.08	0.851	0.505	0.223	0.114	1.05	1.05	0.623	0.271	0.133
PC-3 [JPC-3]	0.726	0.708	0.62	0.635	0.721	0.82	0.857	0.829	0.697	0.75	0.845	0.708	0.605	0.344	0.282	1.01	0.751	0.64	0.291	0.355
PC-14	0.14	0.163	0.222	0.204	0.124	0.788	1.05	0.972	0.583	0.636	0.972	0.805	0.284	0.115	0.0708	0.424	0.391	0.145	0.128	0.108
RERF-LC-KJ	1.28	1.24	1.19	1.27	0.687	0.466	0.601	0.565	0.538	0.5	0.649	0.628	0.493	0.198	0.214	1.1	1		0.327	0.184
